For this experiment, the system named is E. coli ATCC25922. In words: MIC assay, serial dilution. Particulars: for MIC: Escherichia coli, ATCC25922, read-out: Anti-bacterial Activity (E. coli MIC (uM)), E. coli, Table 5.

Each structure is given as a SMILES string.

Broadly, the MIC is the smallest concentration in the dilution series that meets the test's criterion for growth inhibition.

With `FC1(F)C2CN(c3ccc4nc5ccc(N6CC7C(C6)C7(F)F)cc5[s+]c4c3)CC21` (stereo not drawn) [Compound 2], the MIC came to 1.6 µM. With `c1cc2nc3ccc(N4CC5CC5C4)cc3[s+]c2cc1N1CC2CC2C1` (stereo not drawn) [Compound 3], the MIC amounted to 1.6 µM.

In the case of `CC1(C)C2CN(c3ccc4nc5cc(CN)c(N6CC7C(C6)C7(C)C)cc5[s+]c4c3)CC21` (stereo not drawn) [Compound 7], the MIC was determined as 6.3 µM. Still for that read-out and setting: for `c1cc2nc3ccc(N4CCC5(CCC5)C4)cc3[s+]c2cc1N1CCC2(CCC2)C1` [Compound 17] the value was 3.1 µM; for `c1ccc2c(c1)Sc1ccccc1N2c1ccc2nc3c(N4CCCC4)cc(N4CCCC4)cc3[s+]c2c1` [Compound 19], 12.5 µM. Still for that read-out and setting: in the case of `NCc1cc2nc3ccc(N4CCCC4)cc3[s+]c2cc1N1CCCC1` [Compound 27] it was 12.5 µM; in that of `CC1(C)CCCN1c1ccc2nc3ccc(N4CCCCCC4)cc3[s+]c2c1` [Compound 28], 12.5 µM.

`CC1(C)C2CN(c3ccc4nc5ccc(N6CCCCCC6)cc5[s+]c4c3)CC21` (stereo not drawn) [Compound 30, 3-[6,6-dimethyl-3-azabicyclo[3.1.0]hexan-N-yl]-7-(azepan-1-yl) phenothiazinium iodide]: the MIC was 0.8 µM. `CC(C)(C)OC(=O)NC1CCN(c2ccc3nc4ccc(N5CC6C(C5)C6(C)C)cc4[s+]c3c2)C1` (stereo not drawn) [Compound 32]: the minimum inhibitory concentration (MIC) was 6.25 µM. Same read-out and setting: for `Cc1cc(N(C)C)cc2[s+]c3cc(N4CCCC4)cc(C)c3nc12` [Compound 33] the value was 1.6 µM. As to `CCc1cccc2[s+]c3cc(N4CCCC4)ccc3nc12` [Compound 37], the MIC stood at 6.3 µM. Same read-out and setting: for `CCc1cc(N2CCCC2)cc2[s+]c3cc(N4CCCC4)cc(CC)c3nc12` [Compound 39] the value was 3.1 µM; for `Cc1cc(N2CCCC2)cc2[s+]c3cc(N4CCCC4)cc(C)c3nc12` [Compound 40], 1.6 µM. Still for that read-out and setting: in the case of `Fc1cc(N2CCCC2)cc2[s+]c3cc(N4CCCC4)cc(F)c3nc12` [Compound 44] it was 6.3 µM; in that of `c1ccc(C2CCN(c3ccc4nc5ccc(N6CCC(c7ccccc7)C6)cc5[s+]c4c3)C2)cc1` (stereo not drawn) [Compound 47], 3.1 µM.

Turning to `FC(F)(F)C1CCCN1c1ccc2nc3ccc(N4CCCC4C(F)(F)F)cc3[s+]c2c1` (stereo not drawn) [Compound 48], the MIC is 3.1 µM. The same measure, in the same setting: for `CC(C)(C)OC(=O)NC1CCN(c2ccc3nc4ccc(N5CCC(NC(=O)OC(C)(C)C)C5)cc4[s+]c3c2)C1` (stereo not drawn) [Compound 51] the value was 6.3 µM; for `CC1(C)CCCN1c1ccc2nc3ccc(N4CCCC4(C)C)cc3[s+]c2c1` [Compound 52], 12.5 µM; for `FC1CCN(c2ccc3nc4ccc(N5CCC(F)C5)cc4[s+]c3c2)C1` (stereo not drawn) [Compound 54], 25 µM. Take `CC1C=CC(C)N1c1ccc2nc3ccc(N4C(C)C=CC4C)cc3[s+]c2c1` (stereo not drawn) [Compound 61]: the MIC was 25 µM. As to `CCc1cc(N2CCCC2)cc2[s+]c3cc(N4CCCC4)cc(C(C)C)c3nc12` [Compound 64], where the note is “E. coli, Table 5”, the “Anti-bacterial Activity (E. coli MIC (uM))” value came to 6.3 µM.
